Measurements: patent EP2926812A1, “USE OF ARTEMETHER IN PREPARATION OF DRUG FOR TREATING LEUKEMIA” (Kunming Pharmaceutical Corp., priority 2012, dated 2014)

Experiments:
[1] = tested on: K562 nude mice transplanted tumor; assay: Apoptosis of tumor cells from tumor-bearing animals (pre-trial); format: in vivo, Balb/c nude mice; conditions: 21 doses
Procedure: (§1) 3.1.2 Nude mice were subjected to 3.0Gy whole-body irradiation, after subcutaneous inoculation of the K562 cells. One week after inoculation, nude mice with visible tumors were divided into the following 4 groups each consisting of 6 animals. The following dosages were administered for 3 continuous weeks, with 7 doses per week, a total of 21 doses.
The effect of the drug on the apoptosis of the tumor cell: from the result of pre-trial (table 3), it appears that the apoptosis ratio in control group is higher than that in the treated group. In fact, this is because the tutor of control group grows more rapidly, has a larger volume, and thus a more significant necrosis. […] However, cells which are not inhibited by the drug form a tumor mass that are not different much from the tumor mass in control group. Therefore, in a mechanism study, tumor cells in vivo should not be used, and an in vitro test is preferred.

[2] = mouse, in vivo
Procedure: (§2) Nude mice were subjected to a 3.0Gy whole-body irradiation, after subcutaneous inoculation of the K562 cells. One week after inoculation, nude mice with visible tumors were divided into the following 5 groups each consisting of 6 animals. The following dosages were administered for 3 continuous weeks, with 5 doses per week, a total of 15 doses.
(§3) Nude mice were subjected to a 3.0Gy whole-body irradiation, after subcutaneous inoculation of the K562 cells. One week after inoculation, nude mice with visible tumors were divided into the following 5 groups each consisting of 6 nude mice.
(§4) High dosage group: intraperitoneal injection of artemether at 100 ml/kg. The dosage was administered for 3 weeks, with 5 doses per week, a total of 15 doses.
(§5) Middle dosage group: intraperitoneal injection of artemether at 60 ml/kg. The dosage was administered for 3 weeks, with 7 doses per week, a total of 21 doses.
(§6) Low dosage group: intraperitoneal injection of artemether at 40 ml/kg. The dosage was administered for 3 weeks, with 7 doses per week, a total of 21 doses.

[3] = tested on: K562 nude mice transplanted tumor; assay: Inhibition of growth of K562 nude mice transplanted tumor (pre-trial, experiment 1, experiment 2); format: in vivo, Balb/c nude mice; conditions: for tumor sizes: n=6
Excerpt: 2.4 K562 cell: primary K562 cell is derived from bone marrow of a patient having leukemia, introduced by Blood Research Institute from abroad, stored and passaged in Pathologic Cell Bank; cultured in RPMI1640 medium (comprising 10% fetal bovine serum).
2.6 experimental animal: Balb/c nude mice, 4~5 weeks old, weight: 17~20 g, gender: half male and half female. Experimental Animal Institute of the Chinese Academy of Medical Sciences, certification number of experimental animals: SCXK (JING) 2005-0013.
3.1.1 Balb/c nude mice were subjected to 3.0Gy whole-body irradiation, after subcutaneous inoculation of primary K562 cells. About 4 weeks after inoculation, tumor masses in growing were removed and transplanted into […], and this process was repeated for 2~3 passages to establish high oncogenic K562 cell line.
as §1
Model control group: intraperitoneal injection of 20% aqueous solution of excipient at 0.2 ml/animal.
High dosage group: intraperitoneal injection of artemether at 150 ml/kg.
Middle dosage group: intraperitoneal injection of artemether at 100 ml/kg.
Low dosage group: intraperitoneal injection of artemether at 50 ml/kg.
as §2
Positive control group: intraperitoneal injection of cyclophosphamide at 10 ml/kg.
High dosage group: intraperitoneal injection of artemether at 100 ml/kg.
Middle dosage group: intraperitoneal injection of artemether at 60 ml/kg.
Low dosage group: intraperitoneal injection of artemether at 40 ml/kg.
as §3
Model control group: intraperitoneal injection of 20% solution of excipient at 0.2ml/animal. The dosage was administered for 3 weeks, with 7 doses per week, a total of 21 doses.
Positive control group: intraperitoneal injection of cyclophosphamide at 10 ml/kg. The dosage was administered for 3 weeks, with 7 doses per week, a total of 21 doses.
as §4, §5, §6

In the case of `CO[C@H]1O[C@@H]2O[C@@]3(C)CC[C@H]4[C@H](C)CC[C@@H]([C@H]1C)[C@@]24OO3` [artemether], the apoptosis ratio ([1]; High dosage group: artemether 150 intraperitoneal) is reported as 2.63%, the apoptosis ratio ([1]; Low dosage group: artemether 50 intraperitoneal) is reported as 1.37±0.47% and the apoptosis ratio ([1]; Middle dosage group: artemether 100 intraperitoneal) is reported as 2.04 ±1.58%. The toxicity [2] was “without toxicity”, the tumor sizes ([3]; experiment 1, High dosage group: artemether 100 ml/kg intraperitoneal, 15 doses in 3 weeks, 1 week after inoculation) was 55.6±11.4 mm3 and the tumor sizes ([3]; experiment 1, High dosage group: artemether 100 ml/kg intraperitoneal, 15 doses in 3 weeks, 2 weeks after inoculation) was 72.9±70.8 mm3. It also gave a tumor sizes ([3]; experiment 1, High dosage group: artemether 100 ml/kg intraperitoneal, 15 doses in 3 weeks, 3 weeks after inoculation) of 307.9±223.2 mm3, a tumor sizes ([3]; experiment 1, High dosage group: artemether 100 ml/kg intraperitoneal, 15 doses in 3 weeks, 4 weeks after inoculation) of 489.2±199.9 mm3 and a tumor mass ([3]; experiment 1, High dosage group: artemether 100 ml/kg intraperitoneal, 15 doses, 4 weeks after inoculation) of 340.0 ± 237.6 mg. The tumor sizes ([3]; experiment 1, Low dosage group: artemether 40 ml/kg intraperitoneal, 15 doses in 3 weeks, 1 week after inoculation) was 42.0±9.0 mm3, the tumor sizes ([3]; experiment 1, Low dosage group: artemether 40 ml/kg intraperitoneal, 15 doses in 3 weeks, 2 weeks after inoculation) was 148.4±75.6 mm3 and the tumor sizes ([3]; experiment 1, Low dosage group: artemether 40 ml/kg intraperitoneal, 15 doses in 3 weeks, 3 weeks after inoculation) was 432.6±332.5 mm3. It also gave a tumor sizes ([3]; experiment 1, Low dosage group: artemether 40 ml/kg intraperitoneal, 15 doses in 3 weeks, 4 weeks after inoculation) of 1127.7±142.8 mm3, a tumor mass ([3]; experiment 1, Low dosage group: artemether 40 ml/kg intraperitoneal, 15 doses, 4 weeks after inoculation) of 1135.0 ± 457.2 mg and a tumor sizes ([3]; experiment 1, Middle dosage group: artemether 60 ml/kg intraperitoneal, 15 doses in 3 weeks, 1 week after inoculation) of 51.3±4.5 mm3. For the same compound, the tumor sizes ([3]; experiment 1, Middle dosage group: artemether 60 ml/kg intraperitoneal, 15 doses in 3 weeks, 2 weeks after inoculation) was 127.5±22.3 mm3, the tumor sizes ([3]; experiment 1, Middle dosage group: artemether 60 ml/kg intraperitoneal, 15 doses in 3 weeks, 3 weeks after inoculation) was 376.7±135.8 mm3 and the tumor sizes ([3]; experiment 1, Middle dosage group: artemether 60 ml/kg intraperitoneal, 15 doses in 3 weeks, 4 weeks after inoculation) was 1035.6±248.5 mm3. The tumor mass ([3]; experiment 1, Middle dosage group: artemether 60 ml/kg intraperitoneal, 15 doses, 4 weeks after inoculation) was 736.7 ± 247.6 mg, the tumor sizes ([3]; experiment 2, High dosage group: artemether 100 ml/kg intraperitoneal, 15 doses in 3 weeks, 1 week after inoculation) was 33.9±14.4 mm3 and the tumor sizes ([3]; experiment 2, High dosage group: artemether 100 ml/kg intraperitoneal, 15 doses in 3 weeks, 2 weeks after inoculation) was 75.5±27.2 mm3. For the same compound, the tumor sizes ([3]; experiment 2, High dosage group: artemether 100 ml/kg intraperitoneal, 15 doses in 3 weeks, 3 weeks after inoculation) was 137.1±101.6 mm3, the tumor sizes ([3]; experiment 2, High dosage group: artemether 100 ml/kg intraperitoneal, 15 doses in 3 weeks, 4 weeks after inoculation) was 291.7±191.5 mm3 and the tumor mass ([3]; experiment 2, High dosage group: artemether 100 ml/kg intraperitoneal, 15 doses, 4 weeks after inoculation) was 230 ± 1153.4 mg. It also gave a tumor sizes ([3]; experiment 2, Low dosage group: artemether 40 ml/kg intraperitoneal, 21 doses in 3 weeks, 1 week after inoculation) of 26.7±5.9 mm3, a tumor sizes ([3]; experiment 2, Low dosage group: artemether 40 ml/kg intraperitoneal, 21 doses in 3 weeks, 2 weeks after inoculation) of 203.7±127.3 mm3 and a tumor sizes ([3]; experiment 2, Low dosage group: artemether 40 ml/kg intraperitoneal, 21 doses in 3 weeks, 3 weeks after inoculation) of 297.4±86.6 mm3. It also gave a tumor sizes ([3]; experiment 2, Low dosage group: artemether 40 ml/kg intraperitoneal, 21 doses in 3 weeks, 4 weeks after inoculation) of 729.2±272.8 mm3, a tumor mass ([3]; experiment 2, Low dosage group: artemether 40 ml/kg intraperitoneal, 21 doses, 4 weeks after inoculation) of 645 ± 314.7 mg and a tumor sizes ([3]; experiment 2, Middle dosage group: artemether 60 ml/kg intraperitoneal, 21 doses in 3 weeks, 1 week after inoculation) of 22.7±7.4 mm3. The tumor sizes ([3]; experiment 2, Middle dosage group: artemether 60 ml/kg intraperitoneal, 21 doses in 3 weeks, 2 weeks after inoculation) was 118.4±129.0 mm3, the tumor sizes ([3]; experiment 2, Middle dosage group: artemether 60 ml/kg intraperitoneal, 21 doses in 3 weeks, 3 weeks after inoculation) was 201.2±98.9 mm3 and the tumor sizes ([3]; experiment 2, Middle dosage group: artemether 60 ml/kg intraperitoneal, 21 doses in 3 weeks, 4 weeks after inoculation) was 746.6±393.7 mm3. The tumor mass ([3]; experiment 2, Middle dosage group: artemether 60 ml/kg intraperitoneal, 21 doses, 4 weeks after inoculation) was 630 ± 418.9 mg, the inhibition ratio ([3]; of tumor mass, experiment 1, Low dosage group: artemether 40 ml/kg intraperitoneal, 15 doses, 4 weeks after inoculation, listed as artemether lyophilized powder for injection) was “no significant inhibition” and the inhibition ratio ([3]; of tumor mass, experiment 1, Middle dosage group: artemether 60 ml/kg intraperitoneal, 15 doses, 4 weeks after inoculation, listed as artemether lyophilized powder for injection) was 31%. It also gave an inhibition ratio ([3]; of tumor mass, experiment 2, Low dosage group: artemether 40 ml/kg intraperitoneal, 21 doses, 4 weeks after inoculation, listed as artemether lyophilized powder for injection) of 55%, an inhibition ratio ([3]; of tumor mass, experiment 2, Middle dosage group: artemether 60 ml/kg intraperitoneal, 21 doses, 4 weeks after inoculation, listed as artemether lyophilized powder for injection) of 56% and an inhibition ratio ([3]; of tumor mass, pre-trial, Low dosage group: artemether 50 ml/kg intraperitoneal, 21 doses, 4 weeks after administration) of 41.1%. The inhibition ratio ([3]; of tumor mass, pre-trial, Middle dosage group: artemether 100 ml/kg intraperitoneal, 21 doses, 4 weeks after administration) was 64.9%, the inhibition ratio ([3]; of tumor volume, pre-trial, Low dosage group: artemether 50 ml/kg intraperitoneal, 21 doses, 3 weeks after administration) was 43.6% and the inhibition ratio ([3]; of tumor volume, pre-trial, Low dosage group: artemether 50 ml/kg intraperitoneal, 21 doses, 4 weeks after administration) was 44.6%. The inhibition ratio ([3]; of tumor volume, pre-trial, Middle dosage group: artemether 100 ml/kg intraperitoneal, 21 doses, 3 weeks after administration) was 70.3%, the inhibition ratio ([3]; of tumor volume, pre-trial, Middle dosage group: artemether 100 ml/kg intraperitoneal, 21 doses, 4 weeks after administration) was 69.1% and the tumor volume ([3]; pre-trial, High dosage group: artemether 150 ml/kg intraperitoneal, 21 doses in 3 weeks, 1 week after administration) was 55.3 mm3. It also gave a tumor volume ([3]; pre-trial, High dosage group: artemether 150 ml/kg intraperitoneal, 21 doses in 3 weeks, 2 weeks after administration) of 136.8 mm3, a tumor volume ([3]; pre-trial, High dosage group: artemether 150 ml/kg intraperitoneal, 21 doses in 3 weeks, 3 weeks after administration) of 454.1 mm3 and a tumor volume ([3]; pre-trial, High dosage group: artemether 150 ml/kg intraperitoneal, 21 doses in 3 weeks, 4 weeks after administration) of 663.1 mm3. For the same compound, the tumor mass ([3]; pre-trial, High dosage group: artemether 150 ml/kg intraperitoneal, 21 doses, 4 weeks after administration) was 590 mg, the tumor volume ([3]; pre-trial, Low dosage group: artemether 50 ml/kg intraperitoneal, 21 doses in 3 weeks, 1 week after administration) was 174.9±74.7 mm3 and the tumor volume ([3]; pre-trial, Low dosage group: artemether 50 ml/kg intraperitoneal, 21 doses in 3 weeks, 2 weeks after administration) was 535.5±253.42 mm3. It also gave a tumor volume ([3]; pre-trial, Low dosage group: artemether 50 ml/kg intraperitoneal, 21 doses in 3 weeks, 3 weeks after administration) of 997.1±327.71 mm3, a tumor volume ([3]; pre-trial, Low dosage group: artemether 50 ml/kg intraperitoneal, 21 doses in 3 weeks, 4 weeks after administration) of 1672.0 ± 331.0 mm3 and a tumor mass ([3]; pre-trial, Low dosage group: artemether 50 ml/kg intraperitoneal, 21 doses, 4 weeks after administration) of 1436 ± 281.3 mg. It also gave a tumor volume ([3]; pre-trial, Middle dosage group: artemether 100 ml/kg intraperitoneal, 21 doses in 3 weeks, 1 week after administration) of 93.6±43.6 mm3, a tumor volume ([3]; pre-trial, Middle dosage group: artemether 100 ml/kg intraperitoneal, 21 doses in 3 weeks, 2 weeks after administration) of 219.9 ± 110.83 mm3 and a tumor volume ([3]; pre-trial, Middle dosage group: artemether 100 ml/kg intraperitoneal, 21 doses in 3 weeks, 3 weeks after administration) of 524.6±265.57 mm3. The tumor volume ([3]; pre-trial, Middle dosage group: artemether 100 ml/kg intraperitoneal, 21 doses in 3 weeks, 4 weeks after administration) was 931.8±307.9 mm3 and the tumor mass ([3]; pre-trial, Middle dosage group: artemether 100 ml/kg intraperitoneal, 21 doses, 4 weeks after administration) was 857 ± 574.4 mg.
